The text below walks through data of patent publication US20160002273A1, “THIENO[3,2-D]PYRIMIDINE-6-CARBOXAMIDES AND ANALOGUES AS SIRTUIN MODULATORS” (GLAXOSMITHKLINE LLC, priority 2013, published 2016).

Values after ≈ are worked out from the molar mass of the structure shown. Read-outs that look alike come from different tables or passages of the source. A value given as a limit tells only on which side of the number the result lay.

One series addresses T1, SIRT1 (Homo sapiens, UniProt Q96EB6).
T1 sequence (Q96EB6 1-747): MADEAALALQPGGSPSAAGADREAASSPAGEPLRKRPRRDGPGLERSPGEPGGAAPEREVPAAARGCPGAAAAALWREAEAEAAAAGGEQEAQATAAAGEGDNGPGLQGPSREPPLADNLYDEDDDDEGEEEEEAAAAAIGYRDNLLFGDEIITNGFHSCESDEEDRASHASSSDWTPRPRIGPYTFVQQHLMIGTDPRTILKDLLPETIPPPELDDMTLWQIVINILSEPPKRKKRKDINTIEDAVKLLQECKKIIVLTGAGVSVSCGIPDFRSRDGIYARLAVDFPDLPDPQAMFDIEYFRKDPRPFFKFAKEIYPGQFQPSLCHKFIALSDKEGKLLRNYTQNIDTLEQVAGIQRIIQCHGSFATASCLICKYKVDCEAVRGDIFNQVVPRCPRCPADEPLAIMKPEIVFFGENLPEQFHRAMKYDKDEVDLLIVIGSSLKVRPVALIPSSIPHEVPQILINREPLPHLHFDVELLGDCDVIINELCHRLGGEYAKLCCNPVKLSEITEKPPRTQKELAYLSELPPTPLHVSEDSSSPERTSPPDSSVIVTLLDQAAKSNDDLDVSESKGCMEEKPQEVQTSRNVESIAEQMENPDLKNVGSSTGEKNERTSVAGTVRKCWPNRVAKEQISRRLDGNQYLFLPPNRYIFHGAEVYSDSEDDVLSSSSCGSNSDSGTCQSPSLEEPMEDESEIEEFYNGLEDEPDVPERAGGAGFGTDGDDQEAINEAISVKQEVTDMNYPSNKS
Put plainly: SIRT1 deacetylation of Trp 5-mer peptide, OAADPr mass spec assay.

The nature of series [1]: Kinetic solubility by chemi-luminescent nitrogen detection (CLND). It counts as physicochemical. As to conditions: aqueous buffer, kinetic from dmso stock, DMSO stock incubated 1 hr in phosphate buffered saline pH 7.4, filtered.
Another series deals with T2, CYP 1A2 (Homo sapiens, UniProt P05177).
T2 sequence (P05177 1-516): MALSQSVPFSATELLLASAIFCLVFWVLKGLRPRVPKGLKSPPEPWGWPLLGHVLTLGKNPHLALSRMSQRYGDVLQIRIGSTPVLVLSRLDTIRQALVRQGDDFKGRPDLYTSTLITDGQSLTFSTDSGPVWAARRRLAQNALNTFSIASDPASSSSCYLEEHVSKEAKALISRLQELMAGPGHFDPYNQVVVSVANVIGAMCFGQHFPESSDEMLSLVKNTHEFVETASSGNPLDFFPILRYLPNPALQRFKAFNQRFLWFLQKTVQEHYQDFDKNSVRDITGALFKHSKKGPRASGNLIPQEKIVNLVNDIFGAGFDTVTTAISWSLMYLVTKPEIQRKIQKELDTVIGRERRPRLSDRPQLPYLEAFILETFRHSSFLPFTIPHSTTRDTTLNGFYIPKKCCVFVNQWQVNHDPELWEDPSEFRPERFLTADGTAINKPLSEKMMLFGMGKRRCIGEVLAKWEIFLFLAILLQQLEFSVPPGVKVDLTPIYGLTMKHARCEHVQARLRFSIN
Kind of series: CYP inhibition 1A2. It counts as in vitro ADME.

Series [2] can be described thus: Stability in mouse microsomes. It counts as in vitro ADME.
Series [3] in a line: Stability in human microsomes. Type of series: in vitro ADME.
A further series has as its target T3, SIRT2 (Homo sapiens, UniProt Q8IXJ6).
T3 sequence (Q8IXJ6 1-389): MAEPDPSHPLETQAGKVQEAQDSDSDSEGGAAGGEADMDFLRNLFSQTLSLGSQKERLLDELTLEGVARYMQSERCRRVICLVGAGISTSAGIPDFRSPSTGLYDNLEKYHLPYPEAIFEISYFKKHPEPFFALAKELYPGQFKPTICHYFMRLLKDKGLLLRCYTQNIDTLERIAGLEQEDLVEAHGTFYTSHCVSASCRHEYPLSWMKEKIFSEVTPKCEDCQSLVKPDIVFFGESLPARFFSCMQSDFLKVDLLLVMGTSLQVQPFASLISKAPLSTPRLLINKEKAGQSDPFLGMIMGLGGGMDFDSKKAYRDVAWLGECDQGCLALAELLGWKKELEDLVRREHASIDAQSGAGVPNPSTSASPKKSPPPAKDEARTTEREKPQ
Put plainly: SIRT2 deacetylation of Trp 5-mer peptide, OAADPr mass spec assay. It counts as biochemical. The arrangement: His-SIRT2(1-389).

The target in a further series is CYP 2D6 (Homo sapiens, UniProt P10635). Put plainly: CYP inhibition 2D6. It counts as in vitro ADME.
CYP 2D6, sequence (P10635 whole entry): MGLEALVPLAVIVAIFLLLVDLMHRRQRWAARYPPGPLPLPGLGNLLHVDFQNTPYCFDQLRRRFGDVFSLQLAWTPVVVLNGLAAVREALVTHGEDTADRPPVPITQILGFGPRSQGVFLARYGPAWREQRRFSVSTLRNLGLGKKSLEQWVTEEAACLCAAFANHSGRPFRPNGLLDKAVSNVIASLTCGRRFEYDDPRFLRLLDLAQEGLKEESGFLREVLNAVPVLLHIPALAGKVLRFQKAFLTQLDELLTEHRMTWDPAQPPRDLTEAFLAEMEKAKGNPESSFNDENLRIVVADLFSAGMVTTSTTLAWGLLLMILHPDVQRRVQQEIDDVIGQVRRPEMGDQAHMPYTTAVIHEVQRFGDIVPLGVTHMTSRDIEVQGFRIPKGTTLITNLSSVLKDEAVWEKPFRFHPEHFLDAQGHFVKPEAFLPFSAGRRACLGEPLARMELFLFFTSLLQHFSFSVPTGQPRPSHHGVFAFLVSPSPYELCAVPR
Series [4] relates to sirtuin mediated deacetylation of acetyl-p65. Put plainly: Acetyl-p65 assay in U2OS cells (AlphaScreen). Type of series: cell-based. As to conditions: FIG. 6. The procedure: In certain embodiments, U2OS cells were counted by hemocytometer and diluted to a concentration of 1.5×10^5 cell/ml. BacMam p65 and BacMam p300-HAT viruses were added to the diluted cells at 1% and 1% (vol/vol). 40 μl aliquots of the cell suspensions containing the viruses were plated onto a 384 well plate with a multi-drop dispenser. After 7 hours, a 2-fold serial dilution of Compounds 25, 28 and Compound 4, hereafter referred to as the test compounds, was carried out in DMSO. The test compounds were subsequently diluted with medium (20-fold) in an intermediate compound plate, and 4 μL of each test compound was transferred by a liquid handler from the intermediate plate to a cell plate. 24 hours post viral transduction, the medium in the cell plate was removed by inverting and flicking the plate, and blotting the plate with paper towels. 30 μl of lysis buffer (25 mM HEPES pH 7.4, 0.5% Triton X-100, 1 mg/ml Dextran 500, 0.1% BSA, 300 mM NaCl, 2 mM MgCl2, 1×protease inhibitor cocktail) was added to each well to lyse the cells. After incubation of the cells with lysis buffer for 30 minutes at room temp, 10 μl and 3 μl aliquots of the cell lysates were transferred to assay plates, and the assay plate containing 3 μl aliquot of cell lysates was diluted with an additional 7 μl of lysis buffer to obtain a final volume of 10 μl. Acetyl-p65 and total p65 protein in cell lysates were measured using the AlphaScreen assay format (PerkinElmer). The antibodies used to detect acetyl-p65 protein were biotinylated anti-HA antibody (Roche, 12158167001) and anti-acetylated K310-p65 antibody (Abcam, ab19870). The antibodies used to detect total p65 protein were biotinylated anti-HA antibody (Roche, 12158167001) and anti-p65 antibody (Santa Cruz, sc109). […] After incubating the plates for another 2 hrs in the dark, the plates were read by a PHERAstar microplate reader. […]

The target in the next series is CYP 2C19 (Homo sapiens, UniProt P33261). Kind of series: CYP inhibition 2C19. Type of series: in vitro ADME.
CYP 2C19, sequence (P33261 whole entry): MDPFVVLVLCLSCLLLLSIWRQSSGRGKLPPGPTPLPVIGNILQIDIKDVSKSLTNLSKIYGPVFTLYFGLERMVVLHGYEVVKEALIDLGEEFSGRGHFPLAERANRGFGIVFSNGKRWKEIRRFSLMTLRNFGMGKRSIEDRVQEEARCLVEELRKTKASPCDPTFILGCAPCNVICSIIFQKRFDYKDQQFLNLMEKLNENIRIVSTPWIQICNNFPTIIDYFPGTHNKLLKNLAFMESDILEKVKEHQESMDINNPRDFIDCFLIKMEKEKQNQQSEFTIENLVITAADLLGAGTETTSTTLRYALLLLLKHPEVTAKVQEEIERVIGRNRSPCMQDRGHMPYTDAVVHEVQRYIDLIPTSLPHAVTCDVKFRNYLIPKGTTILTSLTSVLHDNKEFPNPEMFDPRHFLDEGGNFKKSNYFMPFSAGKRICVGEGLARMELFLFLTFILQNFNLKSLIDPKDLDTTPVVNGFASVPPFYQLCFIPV
Series [5] can be described thus: HPLC based lipophilicity assay (CHI LogD). It counts as physicochemical. The settings on record: CHI values by reverse phase HPLC transformed to a LogD scale.
A further series concerns the target CYP 3A4 (Homo sapiens, UniProt P08684). Kind of series: CYP inhibition 3A4. It counts as in vitro ADME.

CYP 3A4, sequence (P08684 whole entry): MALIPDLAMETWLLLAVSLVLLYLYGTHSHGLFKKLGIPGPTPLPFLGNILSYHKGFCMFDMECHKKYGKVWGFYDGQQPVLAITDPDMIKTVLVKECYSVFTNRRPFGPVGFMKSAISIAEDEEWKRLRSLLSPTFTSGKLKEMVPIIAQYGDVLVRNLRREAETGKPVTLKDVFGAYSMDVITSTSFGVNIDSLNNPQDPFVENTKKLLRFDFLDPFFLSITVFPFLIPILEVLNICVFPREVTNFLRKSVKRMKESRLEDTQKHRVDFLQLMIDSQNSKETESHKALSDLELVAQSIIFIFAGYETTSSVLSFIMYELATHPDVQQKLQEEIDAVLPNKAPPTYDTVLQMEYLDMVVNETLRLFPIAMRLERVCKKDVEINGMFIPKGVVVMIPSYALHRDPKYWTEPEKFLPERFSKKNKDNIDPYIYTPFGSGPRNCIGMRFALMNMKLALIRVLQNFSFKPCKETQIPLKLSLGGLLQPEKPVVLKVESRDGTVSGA
Protocol for SIRT1: All assays were performed at room temperature in reaction buffer (50 mM HEPES, pH 7.5, 150 mM NaCl, 1 mM DTT, 0.05% BSA). […] To prepare the assays for analysis, 20 μL of reaction volume was mixed in 80 μL of 50:50 acetonitrile:methanol mixture. […] Peak data was integrated using RapidFire Integrator software (Agilent, Santa Clara, Calif.).

For the molecule `CC(C)(C)C(=O)NCCC1CCN(c2ncnc3cc(C(N)=O)sc23)CC1` [Compound 28, 4-(4-(2-pivalamidoethyl)piperidin-1-yl)thieno[3,2-d]pyrimidine-6-carboxamide], the IC50 against SIRT1 (Trp SIRT1_IC50, Trp 5-mer peptide, class symbols) is less than 1 µM; at SIRT1 (read-out: IC50 (μM) SIRT1, Trp 5-mer peptide and NAD at KM, mean of at least three determinations) it was 0.015 µM; at SIRT2 (Trp 5-mer peptide and NAD at KM, mean of at least three determinations, read-out: IC50 (μM) SIRT2) it was 0.01 µM; at SIRT2 (Trp 5-mer peptide, class symbols, read-out: Trp SIRT2_IC50), less than 1 µM. This molecule also showed a solubility at 1 hr in series [1] of 297 µM (≈ 116 µg/mL). The “CYP 1A2” value on CYP 1A2 was more than 50 µM. Besides, the “Mouse CLint” value in series [2] was found to be 12.7 µL/min/mg. In addition, the “Human CLint” value in [3] was determined as 15.8 µL/min/mg. Moreover, on CYP 2D6, the “CYP 2D6” value is more than 50 µM. For the same molecule, in [4], the “inhibition of sirtuin mediated deacetylation of acetyl-p65” value is “inhibit”. Further, the “CYP 2C19” value at CYP 2C19 is more than 50 µM. The molecule further showed a LogD in [5] of 2.73. Besides, the “CYP 3A4” value at CYP 3A4 is more than 50 µM.
